Among the test systems are OVCAR-4 ovarian; DU-145 prostate; COLO 205 colon; IGROV1 ovarian; SF-268 CNS; HT29 colon; SK-MEL-28 melanoma; MOLT-4 leukemia; UACC-257 melanoma; HOP-62 NSCLC.
Common to all, as to assay: inhibition of tumour cell growth, NCI panel, 48 h

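Step 1: Grow cells in 96-well plates. Step 2: Expose to compound for 48 hours at 5 concentrations. Step 3: Interpolate endpoints linearly; if unreached, use highest concentration. GI50 is the concentration that inhibits growth by half. TGI: concentration producing complete growth inhibition.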

Take `S=c1nc2[nH]c3ccc(Br)cc3c2n[nH]1`: the TGI in the assay with OVCAR-4 ovarian, in the assay on DU-145 prostate, in the assay on COLO 205 colon, with IGROV1 ovarian, in the assay with SF-268 CNS and with HT29 colon was above 100 µM each time. The TGI with SK-MEL-28 melanoma, with MOLT-4 leukemia and with UACC-257 melanoma was above 100 µM in each case.
For `Fc1ccc(C2CC(c3cccc(Nc4ccncc4)c3)=NN2c2cc(Cl)cc(Cl)c2)cc1` (centres undefined), the GI50 in the assay on OVCAR-4 ovarian is 1.77 µM; in the assay on DU-145 prostate, 1.85 µM; in the assay on COLO 205 colon, 2.21 µM; in the assay on IGROV1 ovarian it was 1.74 µM; in the assay on SF-268 CNS it was 1.72 µM; in the assay with SK-MEL-28 melanoma, 1.74 µM. The GI50 with MOLT-4 leukemia was 2.23 µM. For the same compound, the TGI with OVCAR-4 ovarian was found to be 3.23 µM; with DU-145 prostate, 3.32 µM; with COLO 205 colon it was 4.81 µM; in the assay on IGROV1 ovarian, 3.3 µM; in the assay on SF-268 CNS it was 3.4 µM; in the assay with SK-MEL-28 melanoma it was 3.31 µM. The TGI with MOLT-4 leukemia was 5.23 µM.
Consider `O=C1c2ccccc2C(=O)c2c1ccc1c2N=C(c2ccc(F)cc2)CC(c2ccc(Cl)c(Cl)c2)N1` (centres undefined), for which the TGI in the assay on HOP-62 NSCLC amounted to 58.2 µM; with OVCAR-4 ovarian it was 37 µM; with COLO 205 colon, 33.4 µM; in the assay with IGROV1 ovarian, 23.4 µM; in the assay with SF-268 CNS, 32.1 µM; in the assay on HT29 colon, 26.3 µM. For the same compound, the TGI in the assay on SK-MEL-28 melanoma was 36 µM; with MOLT-4 leukemia it was above 100 µM; with UACC-257 melanoma it was 50 µM.
Take `Cn1c(-c2ccc[se]2)ccc1-c1ccc(CO)[se]1`: the TGI with OVCAR-4 ovarian is above 100 µM; in the assay with DU-145 prostate, above 78 µM; in the assay with COLO 205 colon, 6.01 µM; in the assay on SF-268 CNS, above 100 µM; with SK-MEL-28 melanoma, above 100 µM; in the assay on MOLT-4 leukemia, 98.2 µM. Further, the TGI in the assay on UACC-257 melanoma is 0.102 µM.
Take `CSc1nc(NC2OCC(O)C(O)C2O)c(N)c(=O)n1C` (centres undefined): the TGI in the assay with HOP-62 NSCLC, in the assay with OVCAR-4 ovarian, with COLO 205 colon, in the assay on IGROV1 ovarian, in the assay with SF-268 CNS and in the assay on HT29 colon was above 100 µM each time. Besides, the TGI in the assay on SK-MEL-28 melanoma, with MOLT-4 leukemia and with UACC-257 melanoma was above 100 µM in each case.
For `COc1ccc(C[C@H](N)C(=O)N2C[C@H](CO)C[C@H](n3ccc(=O)[nH]c3=O)C2)cc1`, the TGI in the assay on HOP-62 NSCLC, with OVCAR-4 ovarian, with COLO 205 colon, with IGROV1 ovarian, in the assay with SF-268 CNS and in the assay on HT29 colon was above 100 µM in each case. In addition, the TGI in the assay with SK-MEL-28 melanoma and in the assay on MOLT-4 leukemia was above 100 µM each time.
Take `[N-]=[N+]=NC1CC(n2cc(COCC(F)(F)F)c(=O)[nH]c2=O)OC1CO` (centres undefined): the TGI in the assay with HOP-62 NSCLC, with OVCAR-4 ovarian, in the assay with COLO 205 colon, with IGROV1 ovarian, in the assay on SF-268 CNS and with HT29 colon was above 100 µM throughout. In addition, the TGI in the assay with SK-MEL-28 melanoma, in the assay on MOLT-4 leukemia and in the assay with UACC-257 melanoma was above 100 µM in each case.
On to `Oc1ccc2c(c1)CC[N+]1=C2CCC2CCCC21` (centres undefined), for which the TGI in the assay on OVCAR-4 ovarian, with COLO 205 colon, in the assay on IGROV1 ovarian, in the assay with SF-268 CNS, in the assay on HT29 colon and with SK-MEL-28 melanoma was above 100 µM throughout.
Turning to `CC(=O)OCc1cc(=O)n(C)c2c3c4c(cc12)c(C)cc(=O)n4CO3`, the TGI came to 4.3 µM in the assay on HOP-62 NSCLC; 6.56 µM in the assay on OVCAR-4 ovarian; 4.23 µM in the assay with COLO 205 colon; 11.5 µM in the assay on IGROV1 ovarian; 7.21 µM in the assay on SF-268 CNS; 8.81 µM in the assay with HT29 colon. Besides, the TGI was found to be 3.42 µM in the assay on SK-MEL-28 melanoma, 4.25 µM in the assay with MOLT-4 leukemia and 5.42 µM with UACC-257 melanoma.
`CCN(CC)C(=S)N/N=C/c1ccccn1`: the TGI in the assay with OVCAR-4 ovarian is above 100 µM; in the assay with DU-145 prostate it was 1.27 µM; in the assay on COLO 205 colon it was above 53.9 µM; in the assay with IGROV1 ovarian, 11.7 µM; with SF-268 CNS it was above 66.4 µM; in the assay with HT29 colon, above 100 µM. Further, the TGI in the assay on SK-MEL-28 melanoma and in the assay on MOLT-4 leukemia was above 100 µM in each case.
With `O=c1[nH]c(=O)n(COCc2ccccc2)c2ccc([N+](=O)[O-])cc12`, the TGI in the assay with OVCAR-4 ovarian, in the assay with DU-145 prostate, with COLO 205 colon, with IGROV1 ovarian, with HT29 colon and in the assay on SK-MEL-28 melanoma was above 100 µM in each case. Moreover, the TGI in the assay on MOLT-4 leukemia and with UACC-257 melanoma was above 100 µM throughout.
Regarding `CC(=O)NC1C(OCc2ccccc2)OC(CO)C(O)C1OCC(=O)NC(C)C(=O)NC(CCC(=O)NCCCCCNc1c2ccccc2nc2cccc([N+](=O)[O-])c12)C(N)=O` (centres undefined), the TGI was 0.00615 µM in the assay with OVCAR-4 ovarian; below 0.0001 µM in the assay on COLO 205 colon; below 0.0001 µM in the assay with SF-268 CNS; below 0.0001 µM with HT29 colon; below 0.0001 µM in the assay on SK-MEL-28 melanoma; 0.00332 µM in the assay on UACC-257 melanoma. The GI50 in the assay on IGROV1 ovarian was 0.0124 µM.
Take `O=C(Nc1c(Cl)cc([N+](=O)[O-])cc1Cl)C(=O)C1C(=O)NC(=S)NC1=O`: the TGI in the assay with HOP-62 NSCLC, with OVCAR-4 ovarian, with IGROV1 ovarian, with SF-268 CNS, in the assay on HT29 colon and with SK-MEL-28 melanoma was above 100 µM in each case. In the assay on UACC-257 melanoma, this compound returned a TGI above 100 µM.
As to `COc1cccc2c1C1(O)C2CCCC12OCCCO2` (centres undefined), the TGI in the assay with HOP-62 NSCLC, in the assay with OVCAR-4 ovarian, in the assay on COLO 205 colon, with IGROV1 ovarian, with SF-268 CNS and with HT29 colon was above 100 µM each time. Besides, the TGI in the assay on SK-MEL-28 melanoma, with MOLT-4 leukemia and in the assay with UACC-257 melanoma was above 100 µM throughout.
In the case of `COC(=O)c1nc(-c2ccc3c(n2)C(=O)C(N)=C(OC)C3=O)c(N)c(-c2ccc(OC)c(OC)c2O)c1C`, the TGI turned out to be 0.487 µM with HOP-62 NSCLC; 3.06 µM in the assay on OVCAR-4 ovarian; 3.61 µM in the assay with COLO 205 colon; 4.77 µM in the assay on IGROV1 ovarian; 5.25 µM with SF-268 CNS; 4.43 µM with HT29 colon. Further, the TGI stood at 2.77 µM in the assay on SK-MEL-28 melanoma and 2.09 µM in the assay with UACC-257 melanoma.
Consider `Nc1ccccc1NC(=O)CCCCCCC(=O)Nc1ccc2c(c1)/C(=C/c1ccc[nH]1)C(=O)N2`, for which the GI50 was 7.06 µM in the assay on DU-145 prostate; 43.8 µM with COLO 205 colon; 49.8 µM with IGROV1 ovarian; 6.64 µM in the assay with SF-268 CNS; above 100 µM in the assay with HT29 colon; above 100 µM in the assay with SK-MEL-28 melanoma. The GI50 was 2.9 µM in the assay on MOLT-4 leukemia and above 100 µM in the assay with UACC-257 melanoma. For the same compound, the TGI in the assay on DU-145 prostate, in the assay on COLO 205 colon, in the assay with IGROV1 ovarian, in the assay on SF-268 CNS, with HT29 colon and in the assay on SK-MEL-28 melanoma was above 100 µM in each case. Also, the TGI in the assay with MOLT-4 leukemia and in the assay with UACC-257 melanoma was above 100 µM each time.
Regarding `CC(=NCCN(CCN=C(C)c1c(O)cc(C)oc1=O)CCN=C(C)c1c(O)cc(C)oc1=O)c1c(O)cc(C)oc1=O`, the TGI in the assay with HOP-62 NSCLC, with OVCAR-4 ovarian, in the assay on COLO 205 colon, with IGROV1 ovarian, with SF-268 CNS and in the assay on HT29 colon was above 100 µM throughout. Also, the TGI with SK-MEL-28 melanoma, in the assay on MOLT-4 leukemia and in the assay with UACC-257 melanoma was above 100 µM throughout.
For the compound `CC1CCc2c(sc3ncnc(N/N=C/c4ccc(Cl)c(Cl)c4)c23)C1` (centres undefined), the TGI in the assay with HOP-62 NSCLC was above 100 µM; with COLO 205 colon it was 71.6 µM; in the assay on IGROV1 ovarian it was above 100 µM; in the assay with SF-268 CNS it was above 100 µM; in the assay on HT29 colon it was above 100 µM; in the assay with SK-MEL-28 melanoma, above 100 µM. Besides, the TGI in the assay on MOLT-4 leukemia and with UACC-257 melanoma was above 100 µM each time.
Consider `CC(=O)NC1=C(C)C(=O)c2c(nc3n2CCC3O)C1=O` (centres undefined), for which the TGI was above 100 µM in the assay with HOP-62 NSCLC; 29.7 µM with OVCAR-4 ovarian; above 100 µM in the assay with COLO 205 colon; above 89.7 µM in the assay on IGROV1 ovarian; above 83.3 µM with SF-268 CNS; above 100 µM with HT29 colon. Besides, the TGI with SK-MEL-28 melanoma is above 100 µM; with MOLT-4 leukemia it was 16.6 µM; with UACC-257 melanoma, above 59.9 µM.
For `N=S(=O)(c1ccccc1)c1ccccc1[N+](=O)[O-]` (centres undefined), the TGI in the assay with HOP-62 NSCLC, in the assay on OVCAR-4 ovarian, in the assay with COLO 205 colon, in the assay with IGROV1 ovarian, in the assay on HT29 colon and in the assay on MOLT-4 leukemia was above 100 µM each time. Also, the TGI with UACC-257 melanoma is above 100 µM.
For the compound `CCNC(=O)/C=C/CCC#Cc1ccc(-c2ccc(-c3cccs3)s2)s1`, the TGI with HOP-62 NSCLC is above 100 µM; with OVCAR-4 ovarian, above 100 µM; in the assay with COLO 205 colon, 3.19 µM; with IGROV1 ovarian it was above 100 µM; in the assay on SF-268 CNS it was above 100 µM; in the assay on HT29 colon, above 100 µM. The TGI in the assay with MOLT-4 leukemia and in the assay on UACC-257 melanoma was above 100 µM each time.

The values are drawn from PubChem BioAssay (NCI).
